According to patent US20120121736A1, “COMPOSITION FOR TREATING GASTRIC ULCER AND A PROCESS THEREOF” (priority 2010, published 2012):

Legend:
[1] = test system: histamine induced duodenal ulcer; assay: Histamine induced duodenal ulcer model; format: in vivo, Guinea pig
Method: EXPERIMENT 3: EFFECT ON HISTAMINE INDUCED ULCER MODEL Method:
1. Animals were fasted for 24 hours with access to water.
2. The drug was given orally 1 hour prior to the histamine administration.
3. Histamine was administered in a dose of 0.25 mg/Kg, i. m. at 30 minutes interval for 7 times and it induced 100% duodenal ulceration in guinea pig (According to the method of Watt and Eagleton 1964).
4. The animals were sacrificed after half an hour of last injection under ether anesthesia.
5. The stomach along with duodenum were removed washed thoroughly and examined for the lesions. Ulcer index and protection index were calculated.

[2] = test system: pyloric ligation induced Ulcer; assay: Pyloric ligation induced ulcer model; format: in vivo, rats; details: in respect to the protection of Omeprazole taken as 100%
Method: EXPERIMENT 5: EFFECT ON PYLORIC LIGATION INDUCED ULCER MODEL Method: 1. Animals were fasted for 24 hours in the raised mesh bottom cages to prevent coprophagia and were allowed free access to water. 2. The control group of rats was feed with the vehicle and the experimental groups with their respective drugs 45 minutes prior to the ligation. 3. The animal was anesthetized, abdomen was cut opened under xiphoid process, and the pyloric portion of the stomach was slightly lifted and ligated avoiding any damage to the adjacent blood vessels (According to the method of Shay et al. 1945). 4. The animals were stitched and kept for 4 hours with free access to water. 5. After 4 hours the animals were sacrificed under ether anesthesia and the stomach was dissected out incised along the greater curvature. 6. The stomach was washed thoroughly and the ulcer index was scored as per in other ulcer models.

[3] = test system: Cold Restraint Ulcer Model (CRU); assay: Cold Restraint Ulcer (CRU) model; format: in vivo, rats
Method: EXPERIMENT 1: EFFECT ON COLD RESTRAINT ULCERS (CRU) MODEL METHOD: Adult rats of either sex, weighing 150-175 grams are fasted for 24 hours in metallic cages with raised mesh bottoms to prevent coprophagia and were allowed free access to water. The test drugs were administered 45 minutes before immobilizing the animals. The rats were immobilized in the restraint cage and kept at 4° C. in BOD incubator for 2 hours (According to the method of Senay and Levine 1967). The animals were sacrificed immediately after the restraint period. The abdomen was cut opened; stomach was taken out and incised along the greater curvature to observe the gastric lesions with the help of Magnascope (5× magnification) The following arbitrary scoring system was used to grade the severity and intensity of the lesions: 1. Shedding of epithelium=10 2. Petechial and frank hemorrhages=20 3. One or two ulcers=30 4. More than two ulcers=40 5. Perforated ulcers=50 The presence of any of these lesions was considered as a positive ulcerogenic response which has been shown as percentage of rats showing gastric lesions. The severity of ulcers is expressed in terms of ulcer index, which is the mean score of gastric lesions of all the rats in a group. The term Ulcer Index is defined as: Ulcer Index (U. I.)=Us+Up×10−1 where Us=Mean severity of ulcer score and Up=Percentage of animals with Ulcer incidences. The percentage protection is calculated as follows: Percentage protection=(C−T/C)×100. where C=Number of animals showing ulcer response in control group and T=Number of animals showing ulcer response in test group.

[4] = test system: Aspirin induced ulcer model; assay: Aspirin induced gastric ulcer model; format: in vivo, rats
Method: EXPERIMENT 2: EFFECT ON ASPIRIN INDUCED GASTRIC ULCER MODEL Method: Gastric ulceration was induced by aspirin according to the method of Djahanguiri (1969). Aspirin (150 mg/Kg.) was administered per orally as a suspension in gum-acacia and the animal was sacrificed 5 hr. after the aspirin treatment and the ulcer index with protection index were calculated.

[5] = test system: Ethanol Induced Ulcer Model; assay: Alcohol (ethanol) induced gastric ulcer model; format: in vivo, rats; details: in respect to the protection of Omeprazole taken as 100%
Method: EXPERIMENT 4: EFFECT ON ALCOHOL INDUCED GASTRIC ULCERS IN RATS Method: 1. Adult rats of either sex were taken; weighing 150-175 grams were fasted for 24 hours with free access to water.
2. The test drugs were administered (p. o.) 45 minutes before alcohol administration.
3. 1 ml of chilled absolute alcohol was administered (p. o.) to the rats (According to the Wittetal).
4. Immediately after 1 hour, the animals were anesthetized, abdomen was cut opened stomach was taken out and incised along the greater curvature to observe the gastric lesions.
The ulcers are examined under the 5× magnification with the help of magnascope. Absolute ethanol lesions appears as blackish lesions grouped in patches of varying size, usually parallel to the major axis of the stomach.
5. The lengths of the lesions are measured and summated to give a total lesion score, then calculated and expressed in percentage.

[6] = 10 mg/Kg, standard, protection taken as 100%

## COc1ccc2[nH]c([S+]([O-])Cc3ncc(C)c(OC)c3C)nc2c1 (stereo not drawn) [Omeprazole]
[1]; Omeprazole 10 mg/Kg, p.o.
  Volume of gastric fluid: 1.0 ± 0.2 mL
[1]; in respect to the protection of Omeprazole taken as 100%
  PERCENTAGE PROTECTION: 100%
[1]; score 20, Omeprazole 10 mg/Kg, p.o.
  Ulcer severity (type of lesions) Scores (No. of Guinea pig showing lesions/No. of Guinea pig tested) 20: 1/3
[2]
  PROTECTION (Percentage protection): 100%
[3]; [6]
  PERCENTAGE PROTECTION: 100%
[3]; 10 = Shedding of epithelium, Omeprazole 10 mg/Kg, p.o.
  Ulcer severity (type of lesions) Scores (No. of rats showing lesions/No. of rats tested) 10: 3/10
[3]; 20 = Petechial and frank hemorrhages, Omeprazole 10 mg/Kg, p.o.
  Ulcer severity (type of lesions) Scores (No. of rats showing lesions/No. of rats tested) 20: 2/10
[4]; [6]
  PERCENTAGE PROTECTION: 100%
[4]; 10 = Shedding of epithelium, Omeprazole 20 mg/Kg, Aspirin 150 mg/Kg p.o.
  Ulcer severity (type of lesions) Scores (No. of rats showing lesions/No. of rats tested) 10: 2/6
[4]; 20 = Petechial and frank hemorrhages, Omeprazole 20 mg/Kg, Aspirin 150 mg/Kg p.o.
  Ulcer severity (type of lesions) Scores (No. of rats showing lesions/No. of rats tested) 20: 1/6
[4]; Omeprazole 20 mg/Kg
  Percentage of ulcer incidence (No. of rats showing ulcer/total No. of rats used): 50 (3/6) %
[5]
  PROTECTION (Percentage protection): 100.0%
